Measurements as given in publication PMC12024264, “Frog Skin Peptides Hylin-a1, AR-23, and RV-23: Promising Tools Against Carbapenem-Resistant Escherichia coli and Klebsiella pneumoniae Infections” (Antibiotics, 2025).

How the values were obtained:
Experiment in all cases: Antibiotic resistance profile of clinical isolate (Table S1)
K. pneumoniae 311 = format: cell-based, Klebsiella pneumoniae; settings: Table S1, K. pneumoniae 311
Procedure: (§1) Each strain was grown in Mueller Hinton Broth (MH Broth), and 5 × 10^5 CFU/mL was used to evaluate antibacterial activity. Clinical carbapenem-resistant K. pneumoniae and E. coli isolates were collected at the AOU of Virology and Microbiology of the University of Campania “Luigi Vanvitelli”. […]
(§2) Table S1. Antibiotic resistance profile of K. pneumoniae and E. coli clinical isolates . MIC: Minimum Inhibitory
(§3) Concentration was expressed in µg/mL; S: Sensible; I: Intermediate; R: Resistant.
(§4) Antibiotic Resistance Profile of the Clinical Isolated Bacteria
(§5) Antibiotics MIC (µg/mL) Interpretation […]

K. pneumoniae 1745 = format: cell-based, Klebsiella pneumoniae; settings: Table S1, K. pneumoniae 1745
Procedure: as §1, §2, §3, §4, §5

K. pneumoniae 1746 = format: cell-based, Klebsiella pneumoniae; settings: Table S1, K. pneumoniae 1746
Procedure: as §1, §2, §3, §4, §5

K. pneumoniae 1711 = format: cell-based, Klebsiella pneumoniae; settings: Table S1, K. pneumoniae 1711
Procedure: as §1, §2, §3, §4, §5

E. coli 2267 = format: cell-based, Escherichia coli; settings: Table S1, E. coli 2267
Procedure: as §1, §2, §3, §4, §5

E. coli 3140 = format: cell-based, Escherichia coli; settings: Table S1, E. coli 3140
Procedure: as §1, §2, §3, §4, §5

E. coli 1441 = format: cell-based, Escherichia coli; settings: Table S1, E. coli 1441
Procedure: as §1, §2, §3, §4, §5

E. coli 1376 = format: cell-based, Escherichia coli; settings: Table S1, E. coli 1376
Procedure: as §1, §2, §3, §4, §5

E. coli 716 = format: cell-based, Escherichia coli; settings: Table S1, E. coli 716
Procedure: as §1, §2, §3, §4, §5

Substance	Interpretation (K. pneumoniae 311)	MIC (K. pneumoniae 311)	Interpretation (K. pneumoniae 1745)	MIC (K. pneumoniae 1745)	Interpretation (K. pneumoniae 1746)	MIC (K. pneumoniae 1746)	Interpretation (K. pneumoniae 1711)	MIC (K. pneumoniae 1711)	Interpretation (E. coli 2267)	MIC (E. coli 2267)	Interpretation (E. coli 3140)	MIC (E. coli 3140)	Interpretation (E. coli 1441)	MIC (E. coli 1441)	Interpretation (E. coli 1376)	MIC (E. coli 1376)	Interpretation (E. coli 716)	MIC (E. coli 716)
Ceftolozano tazobactam	R	> 4/4	R	> 4/4	R	> 4/4	R	> 4/4	R	> 4/4	R	> 4/4	R	> 4/4	R	> 4/4	R	> 4/4
Meropenem-vaborbactam	S	4/ 8	R	> 8/8	S	≤ 2/8	R	> 8/8	R		S	≤ 2/8	S	≤ 2/8	R	> 8/8	R	> 32/2
Piperacillin/tazobactam	R	> 64/4	R	> 64/4	R	32/4	R	> 64/4	R	> 64/4	R	> 64/4	R	> 64/4	R	> 64/4	R	> 64/4
Trimethoprim/sulfamethoxazole	S	2/38	R	> 4/76	S	≤ 1/19	R	> 4/76	R	> 4/76	S	≤ 1/19	S	≤ 1/19	R	> 4/76	R	> 4/76
